In series [1] the target is recombinant RORγ Ligand Binding Domain (LBD) protein (Homo sapiens (Human), UniProt P51449). Nature of the series: Radio-Ligand RORγ Binding Assay (Assay 1). The conditions noted are these: competition with 25-hydroxy [26,27-3H]-cholesterol, SPA; read-out: RORγ Binding Ki Range (nM) (Assay 1). As to the method: Radio-Ligand RORγ Binding Assay (Assay 1)
Compounds of the present invention were tested for ability to bind to RORγ in a cell-free competition assay with commercially available radio-ligand (RL), 25-hydroxy [26,27-^3H]-cholesterol (PerkinElmer, Cat. #NET674250UC), for a ligand binding site on a recombinant RORγ Ligand Binding Domain (LBD) protein expressed as a 6×His-Glutathione-S-Transferase (GST) fusion. […] The plate was shaken at 700 rpm for 20 min and incubated for 10 min at rt, after which 40 μL of poly-Lys YSi SPA beads (PerkinElmer, Cat. #RPNQ0010) were added to achieve 50 μg of the beads per well. The plate was incubated on an orbital shaker for 20 min and then for 10 min without agitation at rt. SPA signal for tritium beta radiation was registered on PerkinElmer Microbeta plate reader. […] The percent inhibition vs. concentration data were fit into a four-parameter model, and IC50 values were calculated from the fit as the concentrations corresponding to the inflection points on the dose-response curves.

For series [2], the target named is full-length RORγt (Homo sapiens (Human), UniProt P51449). The experiment in a line: RORγt 5×RORE Assay in Jurkat Cells (Assay 2). Type of series: cell-based. The following applies: 5×RORE luciferase reporter, read-out: RORγt5X IC50 Range (nM) (Assay 2). As to the method: RORγt 5×RORE Assay in Jurkat Cells (Assay 2)
Chain of full-length RORγt (P51449 other isoform, or with tags, fused parts or gaps): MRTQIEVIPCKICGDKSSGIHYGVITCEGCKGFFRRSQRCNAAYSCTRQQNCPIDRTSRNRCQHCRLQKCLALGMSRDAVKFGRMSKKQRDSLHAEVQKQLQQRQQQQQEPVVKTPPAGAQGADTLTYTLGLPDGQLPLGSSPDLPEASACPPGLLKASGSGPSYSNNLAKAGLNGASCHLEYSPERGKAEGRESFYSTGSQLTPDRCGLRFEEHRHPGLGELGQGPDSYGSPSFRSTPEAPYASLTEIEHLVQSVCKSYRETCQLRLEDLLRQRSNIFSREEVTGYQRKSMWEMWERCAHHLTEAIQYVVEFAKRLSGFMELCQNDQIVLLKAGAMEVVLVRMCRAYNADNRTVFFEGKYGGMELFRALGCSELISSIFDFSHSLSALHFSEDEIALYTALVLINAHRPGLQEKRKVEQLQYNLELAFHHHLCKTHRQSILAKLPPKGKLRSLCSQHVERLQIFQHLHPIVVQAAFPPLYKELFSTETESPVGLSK
Compounds of the present invention were tested for RORγ inverse agonist activity in a cell-based, transcriptional activity assay. […] (Promega, Cat. #N1021) using KpnI and HindIII restriction sites. […] Tested compounds were added to the cells in the same media (final concentration of DMSO was 0.1% (v/v)), and the plates were incubated at 37° C./5% CO2 for 16-18 hr. Luciferase activity in the conditioned supernatants was determined with NanoGlo® assay reagents (Promega, Cat. #N1130).
For orientation: Reporter assays use an easily measured gene product as a stand-in for the process of interest.

Series [3] deals with IL-17A production. Nature of the series: Human Whole Blood Assay (Assay 3). The following applies: IL-17A secretion, 50% blood/media. Type of series: cell-based. As to the method:
Human Whole Blood Assay (Assay 3)
Compounds of the invention were tested in the human whole blood assay to measure their effects on IL-17A production as determined by cytokine secretion into 50% blood/media supernatant. Mixtures of sodium heparinized whole blood (isolated from healthy human donors) and the T cell activator CytoStim, in the presence or absence of compound, were plated in sterilized, tissue culture-treated 24-well plates. Specifically, the mixtures in each well were as follows: (1) 500 μL of whole blood, (2) 250 μL of compound diluted into RPMI-1640 media containing 10% HyClone™ FCS (Thermo Fisher Scientific, Waltham, Mass.), Gibco® Pen/Strep and Gibco® NEAA (Life Technologies, Grand Island, N.Y.), and (3) 250 μL, of CytoStim (Miltenyi Biotech, Germany) diluted to a final concentration of 10 μL/mL in complete cell culture medium.
Mixtures were incubated at 37° C./5% CO2 for 48 h, after which, 200 μL of clean supernatant (i.e., no red blood cells) from each well was transferred to a well in a 96-well plate. IL-17A cytokine expression was determined using 25 μL of the transferred supernatant diluted with 25 μL of Diluent 43 from the Human IL-17A V-PLEX™ kit (cat. #K151RFD-4, Meso Scale Discovery, Rockville, Md.). The assay was performed according to the manufacturer's instructions using included reagents. The IL-17A V-PLEX™ plates were read using the Meso Scale Discovery Imager (Model 1200). The levels of IL-17A were extrapolated from a standard curve using a four-parameter non-linear fitting model and expressed as pg/mL. These values were regressed against concentrations of the tested compounds to derive IC50 values using a four-parameter non-linear fitting model.

For series [4], the target named is hERG (human ether-à-go-go-related gene) potassium ion channel (Homo sapiens (Human), UniProt Q12809). Nature of the series: hERG Assay (Assay 4). The class given is cell-based. The following applies: patch clamp, HEK 293 cells. As to the method: Compounds of the invention were tested in vitro against the hERG (human ether-à-go-go-related gene) potassium ion channel (a surrogate for IKr, the rapidly activating delayed rectifier cardiac potassium ion channel).
Chain of hERG (human ether-à-go-go-related gene) potassium ion channel (Q12809 whole entry): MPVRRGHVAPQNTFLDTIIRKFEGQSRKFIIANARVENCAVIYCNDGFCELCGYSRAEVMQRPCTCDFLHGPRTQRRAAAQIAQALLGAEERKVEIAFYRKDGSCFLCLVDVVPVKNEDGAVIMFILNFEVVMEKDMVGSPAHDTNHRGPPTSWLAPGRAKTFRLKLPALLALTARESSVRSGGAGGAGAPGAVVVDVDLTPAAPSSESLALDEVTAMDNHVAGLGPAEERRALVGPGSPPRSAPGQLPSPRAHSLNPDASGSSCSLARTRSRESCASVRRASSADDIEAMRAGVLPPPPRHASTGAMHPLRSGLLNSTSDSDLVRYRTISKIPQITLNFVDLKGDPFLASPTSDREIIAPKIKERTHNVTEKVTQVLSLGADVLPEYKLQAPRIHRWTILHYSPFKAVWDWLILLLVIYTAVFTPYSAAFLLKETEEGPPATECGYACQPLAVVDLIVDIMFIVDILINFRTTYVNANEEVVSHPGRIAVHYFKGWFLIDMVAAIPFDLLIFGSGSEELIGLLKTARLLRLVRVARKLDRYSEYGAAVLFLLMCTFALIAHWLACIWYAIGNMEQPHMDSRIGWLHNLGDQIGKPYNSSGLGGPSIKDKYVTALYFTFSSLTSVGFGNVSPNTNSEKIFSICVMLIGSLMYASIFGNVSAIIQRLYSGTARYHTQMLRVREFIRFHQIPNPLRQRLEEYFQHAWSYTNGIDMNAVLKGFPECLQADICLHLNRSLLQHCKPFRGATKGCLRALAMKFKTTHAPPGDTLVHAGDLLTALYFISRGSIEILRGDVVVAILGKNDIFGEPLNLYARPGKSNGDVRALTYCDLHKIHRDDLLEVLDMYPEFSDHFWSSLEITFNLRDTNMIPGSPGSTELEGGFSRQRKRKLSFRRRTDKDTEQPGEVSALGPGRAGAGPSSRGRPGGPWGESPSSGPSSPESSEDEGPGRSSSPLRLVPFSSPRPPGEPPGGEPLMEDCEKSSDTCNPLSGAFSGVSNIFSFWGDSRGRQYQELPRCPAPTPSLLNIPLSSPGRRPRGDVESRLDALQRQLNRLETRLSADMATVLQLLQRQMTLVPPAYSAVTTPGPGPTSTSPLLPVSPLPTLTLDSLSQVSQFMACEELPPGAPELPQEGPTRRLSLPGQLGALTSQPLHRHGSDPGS
The buffer was HEPES-buffered physiological saline (HB-PS) solution composed of: 137 mM NaCl, 4.0 mM KCl, 1.8 mM CaCl2, 1 mM MgCl2, 10 mM HEPES, 10 mM glucose, pH adjusted to 7.4 with NaOH, and 0.3% DMSO. Chemicals used in solution preparation were purchased from Sigma-Aldrich (St. Louis, Mo.), unless otherwise noted, and were of ACS reagent grade purity or higher.
HEK (human embryonic kidney) 293 cells were stably transfected with hERG cDNA.
For the patch clamp experiment, onset and steady state inhibition of hERG potassium current was measured using a pulse pattern with fixed amplitudes (depolarization: +20 mV for 2 s; repolarization: −50 mV for 2 s) repeated at 10 s intervals from a holding potential of −80 mV. Peak tail current was measured during the 2 s step to −50 mV. A steady state was maintained for at least 30 seconds before applying compound or positive control (cisapride). Peak tail currents were measured until a new steady state was achieved.
Data acquisition and analyses were performed using the suite of pCLAMP® (ver. 8.2) programs (MDS Analytical Technologies, Sunnyvale, Calif.). Steady state was defined by the limiting constant rate of change with time (linear time dependence). The steady state before and after each compound application was used to calculate the percentage of current inhibited at each concentration.
Concentration-response data were fit to an equation of the following form: % Inhibition={1−1/[1+([Test]/IC50)N]}*100
where [Test] was the compound concentration, IC50 was the compound concentration at half-maximal inhibition, N was the Hill coefficient, and % Inhibition was the percentage of current inhibited at each compound concentration. Nonlinear least squares fits were solved with the Solver add-in for Excel 2003 (Microsoft, Wash.) and the IC50 was calculated.
(The hERG channel carries a current that helps repolarise heart muscle cells.)

SMILES strings stand for the structures. Bounds are passed on as bounds.

Chain of recombinant RORγ Ligand Binding Domain (LBD) protein (P51449 269-508): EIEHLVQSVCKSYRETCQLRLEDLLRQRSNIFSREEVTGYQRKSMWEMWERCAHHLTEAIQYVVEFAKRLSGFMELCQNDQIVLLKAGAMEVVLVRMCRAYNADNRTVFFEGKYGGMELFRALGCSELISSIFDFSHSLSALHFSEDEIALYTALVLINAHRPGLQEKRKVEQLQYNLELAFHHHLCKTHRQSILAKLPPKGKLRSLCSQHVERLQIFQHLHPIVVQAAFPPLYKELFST

On to `CCOC[C@H](NC(=O)c1cnc2c(c1)CN(C[C@H]1CC[C@H](C(F)(F)F)CC1)[C@H]2C(C)C)c1ccc(S(=O)(=O)CC)cc1` [Compound 7], for which the Ki in series [1] was under 100 nM. Moreover, the IC50 in series [2] lay in the range of 100 to 1000 nM.

In series [3] (CytoStim, 48 h), `CC[C@H]1c2ncc(C(=O)N[C@@H](COC)c3ccc(S(=O)(=O)CC)cc3)cc2CN1C[C@H]1CC[C@H](C(F)(F)F)OC1` (single isomer, unassigned) [Compound 3] had an IC50 of under 100 nM. For the same compound, the “hERG Assay (Compound at 3 μM) % Inhibition (Assay 4)” value in series [4] was determined as 24.3%.

As to `CCS(=O)(=O)c1ccc(CNC(=O)c2cnc3c(c2)CN(C[C@H]2CC[C@H](C(F)(F)F)CC2)[C@H]3C(C)C)cc1`, the “hERG Assay (Compound at 3 μM) % Inhibition (Assay 4)” value in series [4] (comparator compounds) is 57.0%.

For `CCS(=O)(=O)c1ccc(CNC(=O)c2cnc3c(c2)CN(C[C@H]2CC[C@H](C(F)(F)F)CC2)[C@H]3C(C)C)nc1`, the IC50 in series [3] (comparator compounds) was over 200 nM. Besides, in series [4] (comparator compounds), the “hERG Assay (Compound at 3 μM) % Inhibition (Assay 4)” value was 45.4%.

As to `CCS(=O)(=O)c1ccc([C@@H](COC(N)=O)NC(=O)c2cnc3c(c2)CN(C[C@H]2CC[C@H](C(F)(F)F)CC2)[C@H]3C(C)C)cc1` [Compound 12], the IC50 in series [3] (CytoStim, 48 h) was in the range of 100 to 200 nM. The “hERG Assay (Compound at 3 μM) % Inhibition (Assay 4)” value in series [4] was 38.8%.

In turn, `CC[C@H]1c2ncc(C(=O)N[C@@H](COC)c3ccc(S(=O)(=O)CC)cc3)cc2CN1C[C@@H]1CC[C@@H](C(F)(F)F)OC1` (single isomer, unassigned) [Compound 4] came in with an IC50 in series [3] (CytoStim, 48 h) of under 100 nM.

`CC[C@H]1c2ncc(C(=O)N[C@@H](COC)c3ccc(S(=O)(=O)CC)cc3)cc2CN1C[C@H]1CC[C@H](C(F)(F)F)CC1` [Compound 1, (S)-7-ethyl-N—((R)-1-(4-(ethylsulfonyl)phenyl)-2-methoxyethyl)-6-((trans-4-(trifluoromethyl)cyclohexyl)methyl)-6,7-dihydro-5H-pyrrolo[3,4-b]pyridine-3-carboxamide]: in series [4], the “hERG Assay (Compound at 3 μM) % Inhibition (Assay 4)” value is on record as 24.3%.

In the case of `CC[C@H]1c2ncc(C(=O)N[C@@H](COC(N)=O)c3ccc(S(=O)(=O)CC)cc3)cc2CN1C[C@H]1CC[C@H](C(F)(F)F)CC1` [Compound 2, (R)-2-((S)-7-ethyl-6-((trans-4-(trifluoromethyl)cyclohexyl)methyl)-6,7-dihydro-5H-pyrrolo[3,4-b]pyridine-3-carboxamido)-2-(4-(ethylsulfonyl)phenyl)ethyl Carbamate], the “hERG Assay (Compound at 3 μM) % Inhibition (Assay 4)” value in series [4] worked out at 38.8%.

Turning to `CCS(=O)(=O)c1ccc([C@H](COC)NC(=O)c2cnc3c(c2)CN(C[C@H]2CC[C@H](C(F)(F)F)CC2)[C@H]3C(C)C)cc1` [Compound 15], the IC50 in series [3] (CytoStim, 48 h) was under 100 nM. Also, in series [4], the “hERG Assay (Compound at 3 μM) % Inhibition (Assay 4)” value came out at 50%.

One may read the Ki as the dissociation constant of the complex between target and ligand, obtained from inhibition or displacement. Usually IC50 stands for the concentration that gives 50% inhibition.
